Data from patent USRE32333E, “A-21978 Antibiotics and process for their production” (priority 1985, dated 1987).
≈ marks a conversion by molar mass, not a printed value. Where “and” joins values, the source holds several entries; their conditions need not be identical. Identical values can stand only once. Like-named read-outs stand apart in the source and are kept apart here.

Assays:
[1] = test system: S. roseosporus (ISP 5122; ATCC 23958); test: Antibiotic sensitivity of comparison culture (sensitivity discs); format: cell-based, Streptomyces roseosporus; design: key: + = sensitive (zones of inhibition); - = resistant (no zones of inhibition); settings: discs on seeded ISP #2 agar; erythromycin 15 μg, cephalothin 30 μg, lincomycin 2 μg, nystatin 100 units, polymyxin B 300 units, streptomycin 10 μg, tetracycline 30 μg, vancomycin 30 μg
Protocol: (§1) Temperature range, NaCl tolerance, pH range, and antibiotic sensitivity were done using ISP #2 agar medium. The range of temperatures were: 25°, 28°, 30°, 34°, 37°, 40°, 45°, 50° and 55° C. NaCl tolerance was measured by adding NaCl to the agar to equal: 0, 1, 2, 3, 4, 5, 6, 8, 10 and 12%. These were incubated at 30° C. The pH range was measured by adjusting the agar from pH 3.0 to 11.0 at increments of 1.0 pH units, just prior to pouring. Antibiotic sensitivity was determined using sensitivity discs padded onto seeded agar plates. Streptomyces roseosporus ISP 5122; ATCC 23958

[2] = test system: A21978.6 (Streptomyces roseosporus NRRL 11379); test: Antibiotic sensitivity of producing culture (sensitivity discs); format: cell-based; design: key: + = sensitive (zones of inhibition); - = resistant (no zones of inhibition); settings: discs on seeded ISP #2 agar; erythromycin 15 μg, cephalothin 30 μg, lincomycin 2 μg, nystatin 100 units, polymyxin B 300 units, streptomycin 10 μg, tetracycline 30 μg, vancomycin 30 μg
Protocol: as §1, with “plates.” for “plates. Streptomyces roseosporus ISP 5122; ATCC 23958”

[3] = test system: Streptococcus pneumoniae Park I; test: MIC, standard agar-dilution test (Table XI); format: cell-based; settings: aerobic, S. pneumoniae Park I, sodium salt form
[4] = Rat, IV
[5] = test system: Peptostreptococcus intermedius; test: MIC against anaerobic bacteria, standard agar-dilution (Table XIV); format: cell-based; settings: anaerobe
[6] = test system: Peptostreptococcus anaerobius; test: as above; format: cell-based; settings: anaerobe
[7] = Mouse
[8] = test system: Viridans Streptococcus 9943; test: MIC, standard agar-dilution test (Table XI); format: cell-based; settings: aerobic, sodium salt form
[9] = test system: Viridans Streptococcus 9943; test: MIC, standard broth-dilution test (Table XII); format: cell-based; settings: aerobic
[10] = test system: Staphylococcus aureus 3055; test: MIC, standard agar-dilution test (Table XI); format: cell-based; settings: aerobic, S. aureus 3055, sodium salt form
Peptococcus prevoti = test: MIC against anaerobic bacteria, standard agar-dilution (Table XIV); format: cell-based; settings: anaerobe
Staphylococcus aureus [11] = test: MIC against clinical isolates, ICS agar-dilution (Table XIII); format: cell-based; settings: 10 clinical isolates, bracket = number of isolates with this MIC or range
[12] = test system: Neisseria gonorrhoeae 111076-4; test: MIC, standard agar-dilution test (Table XI); format: cell-based; settings: aerobic, N. gonorrhoeae 111076-4, sodium salt form
Bacteroides fragilis = test: MIC against anaerobic bacteria, standard agar-dilution (Table XIV); format: cell-based; settings: anaerobe
Actinomyces israelii = test: as above; format: cell-based; settings: anaerobe
[13] = test system: Group D Streptococcus 282; test: MIC, standard agar-dilution test (Table XI); format: cell-based; settings: aerobic, sodium salt form
Clostridium perfringens = settings: anaerobe, agar-dilution
[14] = test system: Staphylococcus aureus 3055; test: MIC, standard broth-dilution test (Table XII); format: cell-based; settings: aerobic, S. aureus 3055
Streptococcus pneumoniae [15] = test: MIC, agar dilution (Table XV); format: cell-based
From the text: (§2) ^1 MIC = minimum inhibitory concentration (μg/ml), agar dilution

Staphylococcus aureus [16] = test: MIC, agar dilution (Table XV); format: cell-based
From the text: as §2

Streptococcus pyogenes [17] = test: MIC, agar dilution (Table XV); format: cell-based
From the text: as §2

[18] = test system: Peptococcus asaccharolyticus; test: MIC against anaerobic bacteria, standard agar-dilution (Table XIV); format: cell-based; settings: anaerobe
Eubacterium aerofaciens = test: as above; format: cell-based; settings: anaerobe
[19] = Electrometric titration in 66% aqueous dimethylformamide; format: physicochemical; settings: 66% DMF, Na salt forms; factors: two determinations
[20] = test system: Fusobacterium necrophorum; test: MIC against anaerobic bacteria, standard agar-dilution (Table XIV); format: cell-based; settings: anaerobe
Streptococcus pneumoniae [21] = test: Experimental bacterial infection in mice, ED50; format: in vivo; settings: S. pneumoniae infection, two doses, subcutaneous administration
Protocol: (§3) When two doses of test compound were administered to mice in illustrative infections, the activity observed as measured as an ED50 value [effective dose in mg/kg to protect fifty percent of the test animals: See Warren Wick, et al., J. Bacteriol, 81, 233-235 (1961)].

Staphylococcus aureus [22] = test: Experimental bacterial infection in mice, ED50; format: in vivo; settings: S. aureus infection, two doses, subcutaneous administration
Protocol: as §3

Streptococcus pyogenes [23] = test: Experimental bacterial infection in mice, ED50; format: in vivo; settings: S. pyogenes infection, two doses
Protocol: as §3

[24] = test system: Streptococcus pyogenes C203; test: MIC, standard broth-dilution test (Table XII); format: cell-based; settings: aerobic, S. pyogenes C203
Clostridium septicum = test: MIC against anaerobic bacteria, standard agar-dilution (Table XIV); format: cell-based; settings: anaerobe
[25] = test system: Streptococcus faecalis (Guze); test: In vitro susceptibility (MIC) of the S. faecalis Guze strain; format: cell-based
From the text: ^1 In vitro susceptibility of the S. faecalis Guze strain

[26] = test system: Group D Streptococcus 282; test: MIC, standard broth-dilution test (Table XII); format: cell-based; settings: aerobic
[27] = test system: Streptococcus pyogenes C203; test: MIC, standard agar-dilution test (Table XI); format: cell-based; settings: aerobic, S. pyogenes C203, sodium salt form
Micrococcus luteus = test: Paper-disc agar-diffusion bioassay; settings: individual factors, Na salts
[28] = test system: Streptococcus pneumoniae Park I; test: MIC, standard broth-dilution test (Table XII); format: cell-based; settings: aerobic, S. pneumoniae Park I
[29] = test system: Streptococcus faecalis (Guze); test: Streptococcus faecalis descending rat pyelonephritis test; settings: for Percent of Rats Cured: cure = kidney counts less than 10^2 per g; for Percent of Rats with a 4-Log Titer Decrease: once daily, kidney titer vs infected controls
Propionibacterium acnes = test: MIC against anaerobic bacteria, standard agar-dilution (Table XIV); format: cell-based; settings: anaerobe
Fusobacterium symbiosum = test: as above; format: cell-based; settings: anaerobe

For `CN(C)[C@@H]1C(O)=C(C(N)=O)C(=O)[C@@]2(O)C(O)=C3C(=O)c4c(O)cccc4[C@@](C)(O)[C@H]3C[C@@H]12` [Tetracycline], the “Antibiotic Sensitivity, S. roseosporus” value [1] was “+” and the “Antibiotic Sensitivity, A21978.6” value [2] was “+”.

With `CC(=O)OCC1=C(C(=O)O)N2C(=O)[C@@H](NC(=O)Cc3cccs3)[C@H]2SC1` [Cephalothin] the “Antibiotic Sensitivity, S. roseosporus” value [1] was “+” and the “Antibiotic Sensitivity, A21978.6” value [2] was “+”.

Work on `CC(C)CCCCCCCCC(=O)NC(Cc1c[nH]c2ccccc12)C(=O)NC(CC(N)=O)C(=O)NC(CC(=O)O)C(=O)NC1C(=O)NCC(=O)NC(CCCN)C(=O)NC(CC(=O)O)C(=O)NC(C)C(=O)NC(CC(=O)O)C(=O)NCC(=O)NC(CO)C(=O)NC(C(C)CC(=O)O)C(=O)NC(CC(=O)c2ccccc2N)C(=O)OC1C` (stereo not shown) [Factor C2] yielded an MIC [3] of 0.25 µg/mL, an LD50 [4] of 204 ± 17 mg/kg and an MIC [5] of 1.0 µg/mL (≈ 0.607 µM). It also gave an MIC [6] of 1.0 µg/mL (≈ 0.607 µM), an LD50 ([7]; IV) of 150 to 250 mg/kg and an LD50 ([7]; SC) of 175 mg/kg. The MIC [8] was 1.0 µg/mL, the MIC [9] was 16.0 µg/mL (≈ 9.7 µM) and the MIC [10] was 0.13 µg/mL. The MIC (Peptococcus prevoti) was 1.0 µg/mL (≈ 0.607 µM), the “Minimum Inhibitory Concentration” value (Staphylococcus aureus [11]) was 0.12 to 0.25 µg/mL and the MIC [12] was 4.0 µg/mL. The MIC (Bacteroides fragilis) was greater than 128 µg/mL, the MIC (Actinomyces israelii) was 1.0 µg/mL (≈ 0.607 µM) and the MIC [13] was 0.25 µg/mL. The MIC (Clostridium perfringens) was 8 µg/mL (≈ 4.85 µM), the MIC [14] was 0.5 µg/mL (≈ 0.303 µM) and the MIC (Streptococcus pneumoniae [15]) was 0.13 µg/mL (≈ 0.0788 µM). For the same compound, the MIC (Staphylococcus aureus [16]) was 0.13 µg/mL (≈ 0.0788 µM), the MIC (Streptococcus pyogenes [17]) was 0.13 µg/mL (≈ 0.0788 µM) and the MIC [18] was 2 µg/mL (≈ 1.21 µM). The MIC (Eubacterium aerofaciens) was 8 µg/mL (≈ 4.85 µM), the “pKa Values (first group)” value [19] was 5.8 and 5.93 and the “pKa Values (second group)” value [19] was 7.6 and 7.63. The MIC [20] was 64 µg/mL (≈ 38.8 µM), the ED50 (Streptococcus pneumoniae [21]) was 0.14 mg/kg and the ED50 (Staphylococcus aureus [22]) was 0.16 mg/kg. For the same compound, the ED50 (Streptococcus pyogenes [23]; oral administration) was 59 mg/kg, the ED50 (Streptococcus pyogenes [23]; subcutaneous administration) was 0.032 mg/kg and the MIC [24] was 0.25 µg/mL (≈ 0.152 µM). It also gave an MIC (Clostridium septicum) of 1.0 µg/mL (≈ 0.607 µM), an MIC [25] of 0.25 µg/mL (≈ 0.152 µM) and an MIC [26] of 1.0 µg/mL (≈ 0.607 µM). The MIC [27] was 0.13 µg/mL, the “Bioassay (Micrococcus luteus)” value (Micrococcus luteus) was 1390 units/mg and the MIC [28] was 1.0 µg/mL (≈ 0.607 µM). The “Percent of Rats Cured” value ([29]; 1.0 mg/kg x 7 subcutaneous) was 89, the “Percent of Rats with a 4-Log Titer Decrease” value ([29]; 1.0 mg/kg x 7 subcutaneous) was 100 and the MIC (Propionibacterium acnes) was 2 µg/mL (≈ 1.21 µM). For the same compound, the MIC (Fusobacterium symbiosum) was greater than 128 µg/mL.

With `CCC[C@@H]1C[C@@H](C(=O)N[C@@H]([C@H]2O[C@H](SC)[C@H](O)[C@@H](O)[C@H]2O)[C@@H](C)O)N(C)C1` [Lincomycin] the “Antibiotic Sensitivity, S. roseosporus” value [1] was “-” and the “Antibiotic Sensitivity, A21978.6” value [2] was “-”.

Compound `CC[C@H]1OC(=O)[C@H](C)[C@@H](O[C@H]2C[C@@](C)(OC)[C@@H](O)[C@H](C)O2)[C@H](C)[C@@H](O[C@@H]2O[C@H](C)C[C@H](N(C)C)[C@H]2O)[C@](C)(O)C[C@@H](C)C(=O)[C@H](C)[C@@H](O)[C@]1(C)O` [Erythromycin, reference compound] has an MIC (Streptococcus pneumoniae [15]; read-out: MIC) of 0.5 µg/mL (≈ 0.681 µM), an MIC (Staphylococcus aureus [16]; read-out: MIC) of 0.13 µg/mL (≈ 0.177 µM) and an MIC (Streptococcus pyogenes [17]; read-out: MIC) of 0.13 µg/mL (≈ 0.177 µM). The “Antibiotic Sensitivity, S. roseosporus” value [1] was “+”, the “Antibiotic Sensitivity, A21978.6” value [2] was “+” and the ED50 (Streptococcus pneumoniae [21]; Streptococcus pneumoniae, sc, read-out: ED50) was 7.3 mg/kg. For the same compound, the ED50 (Staphylococcus aureus [22]; Staphylococcus aureus, sc, read-out: ED50) was 0.5 mg/kg and the ED50 (Streptococcus pyogenes [23]; Streptococcus pyogenes, sc, subcutaneous administration, read-out: ED50) was 0.64 mg/kg.

In the case of `C[C@@H]1[C@H](O)[C@@H](C)/C=C/C=C/CC/C=C/C=C/C=C/C=C/C(O[C@H]2O[C@H](C)[C@@H](O)[C@H](N)[C@@H]2O)CC2O[C@](O)(CC(O)C(O)CCC(O)CC(O)CC(O)CC(=O)O[C@H]1C)CC(O)C2C(=O)O` (stereo partly shown) [Nystatin], the “Antibiotic Sensitivity, S. roseosporus” value [1] is reported as “-” and the “Antibiotic Sensitivity, A21978.6” value [2] is reported as “-”.

In the case of Polymyxin B, the “Antibiotic Sensitivity, S. roseosporus” value [1] is reported as “-” and the “Antibiotic Sensitivity, A21978.6” value [2] is reported as “+”.

In the case of `[H]/N=C(/N)N[C@H]1[C@H](O)[C@@H](O)[C@H](O[C@@H]2O[C@@H](C)[C@](O)(C=O)[C@H]2O[C@@H]2O[C@@H](CO)[C@H](O)[C@@H](O)[C@@H]2NC)[C@@H](N/C(N)=N\[H])[C@@H]1O` [Streptomycin], the “Antibiotic Sensitivity, S. roseosporus” value [1] is reported as “+” and the “Antibiotic Sensitivity, A21978.6” value [2] is reported as “+”.

In the case of `CN[C@H](CC(C)C)C(=O)N[C@H]1C(=O)N[C@@H](CC(N)=O)C(=O)N[C@H]2C(=O)N[C@H]3C(=O)N[C@H](C(=O)N[C@H](C(=O)O)c4cc(O)cc(O)c4-c4cc3ccc4O)[C@H](O)c3ccc(c(Cl)c3)Oc3cc2cc(c3O[C@@H]2O[C@H](CO)[C@@H](O)[C@H](O)[C@H]2O[C@H]2C[C@](C)(N)[C@H](O)[C@H](C)O2)Oc2ccc(cc2Cl)[C@H]1O` [Vancomycin, reference compound], the “Antibiotic Sensitivity, S. roseosporus” value [1] is reported as “+”, the “Antibiotic Sensitivity, A21978.6” value [2] is reported as “+” and the “Percent of Rats Cured” value ([29]; 12.0 mg/kg x 7 subcutaneous) is reported as 33. For the same compound, the “Percent of Rats with a 4-Log Titer Decrease” value ([29]; 12.0 mg/kg x 7 subcutaneous) was 55.
